Test results: patent US20080318911A1, “20-Cyclopropyl, 26,27-Alkyl/Haloalkyl Vitamin D3 Compounds and Methods of Use Thereof” (BIOXELL S.P.A., priority 2004, published 2008)
pIC50: −log10 of the molar value. ≈ marks a conversion by molar mass, not a printed value.

Key:
[1] = Theoretical maximum absorbable dose (MAD), mouse intestine; settings: for MAD (ug) mouse (PAMPA): calculated using PAMPA permeability
Method: (§1) To evaluate the intestinal absorption potential of selected compounds, the maximum absorbable dose (MAD) in mouse, rat and human intestines was also calculated using a modification of the original equation (Johnson 1996, Hilgers 2003): MAD (mg)=S·Pe·(A/ILV)·SIV·SITT (Eq. 1), where S is the solubility measured at pH 7.4 (mg/ml), Pe is the permeability measured in artificial membranes (PAMPA) or in the apical to basolateral direction of Caco-2 cells (cm/sec), A is the intestinal surface area (cm^2), ILV is the intestinal lumen volume (cm^3), SIV is the small intestinal volume (ml) and SITT is the small intestinal transit time (sec).

[2] = Permeability by passive diffusion (PAMPA); type: in vitro ADME; settings: for PAMPA % Memb: % retention in the membrane; for Papp at 4 h, 10 μM: PAMPA
Method: Permeability by Passive Diffusion (PAMPA). Experiments were performed in 96-well acceptor and donor plates using 15% soy lecithin in n-dodecane artificial membranes. The acceptor plate (96 well hydrophobic filter plate (MAIP N45, Millipore)) was prepared by adding 4 μL of artificial membrane material on the top of the filter and the plate was filled with 200 μL of HEPES buffered HBSS (pH 7.4). The donor plate (an indented 96-well plate from p-ION, MA) was filled with 200 μL of HEPES buffered HBSS (pH 7.4) containing 10 μM of the test compounds. The acceptor plate was placed onto the donor plate to form a “sandwich” and was incubated at 37° C. for 4 hours. After the incubation period, acceptor, donor and initial donor solution (reference) were analysed via LC-MS/MS. Data were reported as bilateral Peff in cm×10^−6/sec and % retention in the membrane.

[3] = system: RT4; assay: Proliferation assay using bladder cancer cell lines: RT4; type: cell-based, human; settings: 72 h culture, CyQuant proliferation assay
Method: (§2) Bladder cancer cell lines (T24, RT112, HT1376 and RT4 are human bladder cancer cell lines; NHEK are normal human keratinocytes) were obtained from the European Collection of Cell Cultures (Salisbury, UK). Cells were plated at 3×10^3 per well, in flat bottomed 96-well plates in 100 μl of DMEM medium containing: 5% Fetal Clone 1,50 μg/l gentamicin, 1 mM sodium pyruvate and 1% non-essential amino acids. After culturing for 24 h at 37° C. in 5% CO2, to allow cells to adhere to the plates, VDR ligands (compounds (1)-(14)) were added at concentrations ranging from 100 μM to 0.3 μM in 100 μl of above-mentioned complete medium. After a further 72 h of culture, cell proliferation was measured using a fluorescence-based proliferation assay kit. (CyQuant Cell Proliferation Assay Kit, Molecular Probes, Eugene, Oreg., USA). The IC50 was calculated from the regression curve of the titration data.

[4] = system: RT112; assay: Proliferation assay using bladder cancer cell lines: RT112; type: cell-based, human; settings: 72 h culture, CyQuant proliferation assay
Method: as §2

[5] = Determination of Maximum Tolerated Dose (MTD) in mice; settings: mouse, in vivo, po; female C57BL/6 mice, p.o. daily for four days; highest dose without hypercalcemia (serum calcium >10.7 mg/dl)
[6] = system: Renin mRNA in As4.1 cells; assay: Renin mRNA inhibition in murine juxtaglomerular cell line As4.1; type: cell-based; settings: Mus musculus, 24 h, real time PCR normalized versus β-actin, read-out: Renin mRNA inh.As4.1/wt
Method: As4.1 cells (80% subconfluent) were treated in complete medium with compounds of the invention at 10^−8, 10^−9 and 10^−10 M for 24 h. Total RNA was extracted using RNeasy Mini kit (Qiagen); treated with DNase I (Qiagen) and Reverse Transcription Reagent (Applied Biosystems) with Random Examers were used for reverse transcription according to the manufacturers' instructions. Real Time PCR analysis was performed in multiplex using commercially available β-actin VIC-conjugated probe (cat. n. 4352341E, Applied Biosystems) and custom designed mRENIN FAM-conjugated probe (Assay by Design, Applied Biosystems; Forward: […]; Reverse: […]; Probe: FAM-[…]-MGB). Reactions were performed in a 25 μL volume containing 12,5 μl 2× Master Mix (Applied Biosystems), 10 ng/reaction/well cDNA, and 2,5 μM each gene-specific primer. An ABI PRISM 7700 analyzer (Applied Biosystems) was used at 50° C. for 2 minutes and 95° C. for 10 minutes, followed by 40 cycles at 95° C. for 15 seconds and 60° C. for 1 minute. Cycle threshold (Ct) values were exported onto Excel worksheets for analysis. Test cDNA results were normalized versus mouse β-actin housekeeping gene. Fold differences in gene expression between the subtracted versus the unsubtracted populations were expressed using the method of 2^−ΔΔCt. (Table 6)

[7] = system: NHEK; assay: Proliferation assay: NHEK normal human keratinocytes; type: cell-based; settings: 72 h culture, CyQuant proliferation assay
Method: as §2

[8] = molecular target: T1, human cDNA expressed CYP3A4 (Homo sapiens, UniProt P08684); assay: Metabolic stability (hCYP3A4); type: in vitro ADME; settings: 2 μM, 60 min at 37° C.
T1 construct: purchased Gentest
Method: Metabolic Stability (hCYP34A4). The relative stability of the substrate was determined by measuring the amount of substrate remaining following incubation with human cDNA expressed CYP3A4 microsomal preparations (Gentest, 6 pmol) against a control microsomal incubation containing no active cytochrome P450. The assay was performed in a 96-well plate format. Each compound was incubated at a concentration of 2 μM for 60 min at 37° C. LC-MS/MS was used for determining the compound remaining after incubation. The results were expressed as % remaining.

[9] = Theoretical maximum absorbable dose (MAD), rat intestine; settings: for MAD (ug) rat (PAMPA): calculated using PAMPA permeability
Method: as §1

[10] = Theoretical maximum absorbable dose (MAD), human intestine; settings: for MAD (ug) human (PAMPA): calculated using PAMPA permeability
Method: as §1

[11] = system: Caco-2 cells; assay: Apparent permeability on Caco-2 cells; type: in vitro ADME, Human; settings: for Papp_A > B / Papp_B >: 10 μM, 2 h; for Mass Bal A > B: unit assumed
Method: (§3) Apparent Permeability on Caco-2 cells. Human colon adenocarcinoma (Caco-2) cells were obtained from the American Type Culture Collection (Rockville, Md.). Permeability studies were performed using a 24-well format in both transport directions, apical to basolateral (A→B) and basolateral to apical (B→A), on Caco-2 monolayers. Fresh donor solution containing 10 μM test compound was added to either the apical or the basolateral side, while drug-free medium was placed on the opposite side. The 24-transwell plates were placed on a plate shaker at 37° C. After 2 h, the buffer from the receiving and donor chambers were collected and aliquots were analysed via LC-MS/MS. The data reported were the permeability cm·10^−6/sec and the efflux ratio.

[12] = system: IFN-γ production by allogeneic PBMC; assay: IFN-γ production in the mixed leukocyte response (MLR); type: cell-based; settings: 120 h; MLR of allogeneic PBMC, 5 days, ELISA; read-out: INF-γ IC50
Method: Immature dendritic cells (DC) were prepared as described in Romani, N. et al. (Romani, N. et al. (1996) J. Immunol. Meth. 196:137). IFN-γ production by allogeneic T cell activation in the mixed leukocyte response (MLR) was determined as described in Penna, G., et al., J Immunol., 164: 2405-2411 (2000).
Briefly, peripheral blood mononuclear cells (PBMC) were separated from buffy coats by Ficoll gradient and the same number (3×10^5) of allogeneic PBMC from 2 different donors were co-cultured in 96-well flat-bottom plates. The vitamin D3 compounds were added to each of the cultures.

[13] = Solubility in aqueous buffer; type: physicochemical; settings: kinetic from dmso stock; for solubility at 2 h: pH 7, 2 h; for solubility at 24 h: pH 7, 24 h; for solubility: pH 7.4, aqueous buffer
Method: […] A 96-well plate format assay was used. […] Solutions were filtered through a 0.22 μm and concentrations of the concentration of the compound in the filtrate was determined using LC-MS/MS in comparison with 1 and 10 μM standards. The measurements were expressed as mM.

[14] = Apparent permeability on Caco-2 cells; type: in vitro ADME, Human; settings: human, Caco-2, Table 8; for Papp A→B at 2 h, 10 μM: apical to basolateral, read-out: Caco2 Papp_AB; for Papp B→A at 2 h, 10 μM: basolateral to apical, read-out: Caco2 Papp_BA
Method: as §3

[15] = system: human stromal bladder cells; assay: Basal growth of human stromal bladder cells; type: cell-based; settings: FIG. 2
From the text: The Inventors confirmed the presence of vitamin D receptors (VDRs), as previously reported in the literature, on these cells (see below in FIG. 1).
The maximum tolerated dose (MTD) in rats is also listed for each compound (Table 5).

[16] = system: HT1376; assay: Proliferation assay using bladder cancer cell lines: HT1376; type: cell-based; settings: Homo sapiens, HT-1376; 72 h culture, CyQuant proliferation assay
Method: as §2

[17] = calculated using Caco2-AB permeability

T1 sequence (P08684 whole entry): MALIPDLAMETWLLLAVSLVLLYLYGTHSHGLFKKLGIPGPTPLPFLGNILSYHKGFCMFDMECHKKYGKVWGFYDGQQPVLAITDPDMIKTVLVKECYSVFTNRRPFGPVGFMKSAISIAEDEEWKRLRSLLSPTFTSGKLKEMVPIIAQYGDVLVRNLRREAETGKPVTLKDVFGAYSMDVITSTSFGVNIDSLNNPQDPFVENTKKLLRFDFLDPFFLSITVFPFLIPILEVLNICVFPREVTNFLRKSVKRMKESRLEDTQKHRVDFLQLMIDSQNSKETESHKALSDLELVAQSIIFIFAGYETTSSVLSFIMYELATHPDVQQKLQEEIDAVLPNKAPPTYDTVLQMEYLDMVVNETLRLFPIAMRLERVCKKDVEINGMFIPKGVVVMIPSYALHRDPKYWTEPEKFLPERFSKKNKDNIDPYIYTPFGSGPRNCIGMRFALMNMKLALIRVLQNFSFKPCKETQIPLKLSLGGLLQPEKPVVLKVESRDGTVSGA

Compound | MAD (ug) mouse (PAMPA) [1] | PAMPA % Memb [2] | Papp at 4 h, 10 μM ([2]; pH 7.4, Table 8) | pIC50 ([3]; Homo sapiens, RT-4) | pIC50 ([4]; Homo sapiens, RT-112) | MTD at 4 days [5] | pIC50 [6] | pIC50 [7] | CYP3A4 stability [8] | MAD (ug) rat (PAMPA) [9] | MAD (ug) human (PAMPA) [10] | Papp_A > B ([11]; apical to basolateral) | Mass Bal A > B ([11]; apical to basolateral) | Mass Bal B > A ([11]; basolateral to apical) | Papp_B > ([11]; basolateral to apical) | pIC50 [12] | solubility at 2 h [13] | solubility at 24 h [13] | solubility [13] | Papp A→B at 2 h, 10 μM [14] | also measured
C[C@]12CCC/C(=C\C=C3\CC(O)C[C@H](O)C3)C1CC=C2C1(C/C=C\C(O)(C(F)(F)F)C(F)(F)F)CC1 (stereo partly drawn) [Compound 7, 1α,25-Dihydroxy-16-ene-20-cyclopropyl-23,24-Z-ene-26,27-hexafluoro-19-nor-cholecalciferol] | 8.20 µg | 58.1% | 47.8 ×10⁻⁶ cm/s | 5.66 | 5.02 | 0.3 µg/kg | 8.59 | 5.36 | 58.3 % remaining | 39.99 µg | 2788.31 µg | 0.0 cm·10^−6/sec | 13.1% | 83.3% | 0.0 cm·10^−6/sec | 10.26 | 4.2 µM (≈ 2.19 µg/mL) | 4.1 µM (≈ 2.13 µg/mL) | 2.17 µg/mL (≈ 4.16 µM) |  | Caco2 Papp_AB ([11]; apical to basolateral, Table 8): 0.00 10-6 cm/sec; Caco2 Papp_BA ([11]; basolateral to apical, Table 8): 0.00 10-6 cm/sec
CC(C)(O)CCCC1(C2=CCC3/C(=C/C=C4/CC(O)C[C@H](O)C4)CCC[C@]23C)CC1 (stereo partly drawn) [Compound 9, 1α,25-Dihydroxy-16-ene-20-cyclopropyl-19-nor-cholecalciferol] | 23.61 µg | 97.1% | 36 ×10⁻⁶ cm/s | 5.00 | < 4.52 | 1 µg/kg | 8.06 | 5.21 | 33.3 % remaining | 115.08 µg | 8023.11 µg | 4.8 cm·10^−6/sec | 36.7% | 89.1% | 6.5 cm·10^−6/sec | 10.51 | 19.9 µM (≈ 8.25 µg/mL) | 21.6 µM (≈ 8.96 µg/mL) | 8.27 µg/mL (≈ 19.9 µM) | 4.82 ×10⁻⁶ cm/s | Papp at 4 h, 10 μM ([2]; pH 7.4, 10 μM, pH 7.4, 37° C., 4 hours, Table 9): 36 ×10⁻⁶ cm/s; Papp B→A at 2 h, 10 μM [14]: 6.46 ×10⁻⁶ cm/s
C=C1/C(=C\C=C2/CCC[C@]3(C)C(C4(C/C=C\C(O)(C(F)(F)F)C(F)(F)F)CC4)=CCC23)CC(O)C[C@@H]1O (stereo partly drawn) [Compound 8, 1α,25-Dihydroxy-16-ene-20-cyclopropyl-23,24-Z-ene-26,27-hexafluoro-cholecalciferol] | 2.11 µg | 57.6% | 50 ×10⁻⁶ cm/s | 5.48 | 4.81 | 1 µg/kg | 8.79 | 5.44 | 52.7 % remaining | 10.28 µg | 716.81 µg |  |  |  |  | 10.48 | < 1 µM | 1.6 µM (≈ 0.852 µg/mL) | 0.533 µg/mL (≈ 1 µM) |  | inhibiting the basal growth of bladder cells [15]: effective
C[C@]12CCC/C(=C\C=C3\CC(O)C[C@H](O)C3)C1CC=C2C1(CC#CC(O)(C(F)(F)F)C(F)(F)F)CC1 (stereo partly drawn) [Compound 3, 1α,25-Dihydroxy-16-ene-20-cyclopropyl-23,24-yne-26,27-hexafluoro-19-nor-cholecalciferol] |  |  |  | 5.28 | 4.64 | 0.3 µg/kg | 9.14 | 6.00 | 45.5 % remaining |  |  | 3.0 cm·10^−6/sec | 8.8% | 50.5% | 6.0 cm·10^−6/sec | 10.85 | 1.3 µM (≈ 0.674 µg/mL) | 7.1 µM (≈ 3.68 µg/mL) | 0.674 µg/mL (≈ 1.3 µM) | 3 ×10⁻⁶ cm/s | MAD (ug) mouse (Caco2-AB) [1, 17]: 0.16 (Caco2-AB) ug; MAD (ug) rat (Caco2-AB) [9, 17]: 0.78 (Caco2-AB) ug; MAD (ug) human (Caco2-AB) [10, 17]: 54.43 (Caco2-AB) ug; Papp B→A at 2 h, 10 μM [14]: 6 ×10⁻⁶ cm/s
C=C1/C(=C\C=C2/CCC[C@]3(C)C([C@H](C)CCCC(C)(C)O)CC[C@@H]23)C[C@@H](O)C[C@@H]1O (stereo partly drawn) [1,25(OH)2D3, 1,25-dihydroxycholecalciferol, reference compound] |  |  |  |  |  | 0.3 µg/kg |  | 5.35 |  |  |  |  |  |  |  | 10.30 |  |  |  |  | inhibiting the basal growth of bladder cells [15]: effective; pIC50 [3]: 4.59; pIC50 ([3]; Homo sapiens, RT-4, 72 h): 4.35; pIC50 [4]: 4.54; pIC50 ([4]; Homo sapiens, RT-112, 72 h): 4.72; pIC50 [16]: 4.30
